Laboratory results taken from patent US11034700B2, “Substituted pyrrolidine compound and use thereof” (Takeda Pharmaceutical Company Limited, priority 2017, dated 2021).

target: T1, human OX2 receptor (Homo sapiens, UniProt O43614); assay: Measurement of orexin type 2 receptor agonist activity (Fluo-4 calcium fluorescence, FDSS); type: cell-based; details: compound at 3 μM; CHO cells forcibly expressing human OX2 receptor; DMSO = 0%, orexin A (human) 10 nM = 100%
T1 construct: expressed in transfected cells
T1 sequence (O43614 1-444): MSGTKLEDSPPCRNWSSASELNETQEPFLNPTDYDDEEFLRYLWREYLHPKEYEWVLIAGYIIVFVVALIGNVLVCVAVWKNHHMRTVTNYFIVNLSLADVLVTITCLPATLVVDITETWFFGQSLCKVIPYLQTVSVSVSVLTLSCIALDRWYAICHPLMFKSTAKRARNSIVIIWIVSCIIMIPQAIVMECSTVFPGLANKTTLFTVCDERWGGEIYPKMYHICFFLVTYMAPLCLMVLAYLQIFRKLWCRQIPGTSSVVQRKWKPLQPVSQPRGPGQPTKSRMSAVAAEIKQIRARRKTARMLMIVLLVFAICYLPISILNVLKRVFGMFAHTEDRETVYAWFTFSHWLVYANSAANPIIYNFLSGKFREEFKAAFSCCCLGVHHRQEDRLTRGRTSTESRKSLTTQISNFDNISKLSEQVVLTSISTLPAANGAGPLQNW
From the text: Experimental Example 1: Obtainment of Cell Stably Expressing Human Orexin Type 2 Receptor (hOX2R)
To obtain a cell clone stably expressing human orexin type 2 receptor, human orexin type 2 receptor cDNA was inserted into pcDNA3.1(+) plasmid vector (Invitrogen), and a plasmid DNA for expression of human orexin type 2 receptor (pcDNA3.1(+)/hOX2R) was cloned. The plasmid DNA was introduced into CHO-dhfr cell by an electroporation method, and human orexin type 2 receptor expressing clone cells were obtained by limiting dilution method by using G418 drug resistance as a selection marker.
Experimental Example 2: Measurement of Orexin Type 2 Receptor Agonist Activity
CHO cells forcibly expressing human OX2 receptor were seeded in each well of 384 well black transparent bottom plate (BD Falcon) at 7,500 cells/well, and cultured for one day in a 5% CO2 incubator at 37° C. After removal of the medium in the cell plate, assay buffer A containing a calcium indicator (HESS (Life Technologies), 20 mM HEPES (Life Technologies), 0.1% BSA (Wako Pure Chemical Industries, Ltd.), 2.5 μg/mL Fluo-4 AM (DOJINDO Chemical), 0.08% Pluronic F127 (DOJINDO Chemical), 1.25 mM probenecid (DOJINDO Chemical)) was added at 30 μL/well. The plate was stood for 30 min in a 5% CO2 incubator at 37° C., and further stood at room temperature for 30 min. A test compound prepared by diluting with assay buffer B (HESS, 20 mM HEPES, 0.1% BSA) was added at 10 μL/well, and the fluorescence value was measured by FDSSμCELL (Hamamatsu Photonics K.K.) every one sec for 1 min, and thereafter every two sec for 1 min 40 sec. The activity (%) of the test compound was calculated assuming that variation in the fluorescence value when DMSO was added instead of the test compound was 0% […], and variation in the fluorescence value when orexin A (human) (PEPTIDE INSTITUTE, INC.) was added at the final concentration of 10 nM was 100% […]. The activity of each compound at the concentration of 3 μM was shown below.

SMILES	OX2R agonist activity (3 μM, %)
COc1ccccc1S(=O)(=O)Nc1cncc(O[C@@H]2CN(C(=O)c3cc(C)ccc3C)C[C@H]2OC)c1 (relative stereo) [Example 106, trans-N-(5-((1-(2,5-dimethylbenzoyl)-4-methoxypyrrolidin-3-yl)oxy)pyridin-3-yl)-2-methoxybenzenesulfonamide]	104%
COc1ccccc1S(=O)(=O)Nc1cccc(O[C@@H]2CN(C(=O)c3cc(C)ccc3C)C[C@H]2OC)c1 [Example 63, N-(3-(((3R,4R)-1-(2,5-dimethylbenzoyl)-4-methoxypyrrolidin-3-yl)oxy)phenyl)-2-methoxybenzenesulfonamide]	112%
COc1ccc(-c2cccc(C(=O)N(C)C)c2)cc1S(=O)(=O)Nc1cccc(OC2CCN(C(=O)c3cccc(C)c3)C2)c1 (stereo not shown) [Example 2, 4′-methoxy-N,N-dimethyl-3′-((3-((1-(3-methylbenzoyl)pyrrolidin-3-yl)oxy)phenyl)sulfamoyl)bipheny-3-carboxamide]	90%
COc1ccc(N2CCCC(C(=O)N3CCCC3)C2)cc1S(=O)(=O)Nc1cccc(O[C@H]2CCN(C(=O)c3c(C)cccc3C)C2)c1 (stereo partly drawn) [Example 42, N-(3-(((3S)-1-(2,6-dimethylbenzoyl)pyrrolidin-3-yl)oxy)phenyl)-2-methoxy-5-(3-(pyrrolidin-1-ylcarbonyl)piperidin-1-yl)benzenesulfonamide]	97%
COc1ccc(-c2cccc(C(=O)N(C)C)c2)cc1S(=O)(=O)Nc1cccc(O[C@H]2CCN(C(=O)c3ccc(C)cc3C)C2)c1 [Example 25, 3′-((3-(((3S)-1-(2,4-dimethylbenzoyl)pyrrolidin-3-yl)oxy)phenyl)sulfamoyl)-4′-methoxy-N,N-dimethylbiphenyl-3-carboxamide]	97%
CO[C@@H]1CN(C(=O)c2cc(C)ccc2C)C[C@H]1Oc1cccc(NS(=O)(=O)c2ccccc2F)c1 [Example 82, N-(3-(((3R,4R)-1-(2,5-dimethylbenzoyl)-4-methoxypyrrolidin-3-yl)oxy)phenyl)-2-fluorobenzenesulfonamide]	101%
COc1ccccc1S(=O)(=O)Nc1cccc(O[C@H]2CCN(C(=O)c3cc(C)ccc3C)C2)c1 [Example 62, N-(3-(((3S)-1-(2,5-dimethylbenzoyl)pyrrolidin-3-yl)oxy)phenyl)-2-methoxybenzenesulfonamide]	69%
COc1ccc(-c2cccc(C(=O)N(C)C)c2)cc1S(=O)(=O)Nc1cccc(O[C@@H]2CN(C(=O)c3cc(C)ccc3C)C[C@@H]2OC)c1 (relative stereo) [Example 59, cis-3′-((3-((1-(2,5-dimethylbenzoyl)-4-methoxypyrrolidin-3-yl)oxy)phenyl)sulfamoyl)-4′-methoxy-N,N-dimethylbiphenyl-3-carboxamide]	103%
COc1ccc(-c2cccc(C(=O)N(C)C)c2)cc1S(=O)(=O)Nc1cccc(O[C@H]2CCN(C(=O)c3cccc4c3OCC4)C2)c1 [Example 28, 3′-((3-(((3S)-1-(2,3-dihydro-1-benzofuran-7-ylcarbonyl)pyrrolidin-3-yl)oxy)phenyl)sulfamoyl)-4′-methoxy-N,N-dimethylbiphenyl-3-carboxamide]	101%
COc1ccccc1S(=O)(=O)Nc1cccc(O[C@@H]2CN(C(=O)c3cc(C)ccc3C)C[C@H]2OC)c1C (relative stereo) [Example 103, trans-N-(3-((1-(2,5-dimethylbenzoyl)-4-methoxypyrrolidin-3-yl)oxy)-2-methylphenyl)-2-methoxybenzenesulfonamide]	80%
COc1ccccc1S(=O)(=O)Nc1cccc(C[C@@H]2CN(C(=O)c3cc(C)ccc3C)C[C@H]2OC)c1 (relative stereo) [Example 119, trans-N-(3-((1-(2,5-dimethylbenzoyl)-4-methoxypyrrolidin-3-yl)methyl)phenyl)-2-methoxybenzenesulfonamide]	57%
COc1ccc(-c2cccc(C(=O)N(C)C)c2)cc1S(=O)(=O)Nc1cccc(CC2CCN(C(=O)c3cc(C)ccc3C)C2)n1 (stereo not shown) [Example 45, 3′-((6-((1-(2,5-dimethylbenzoyl)pyrrolidin-3-yl)methyl)pyridin-2-yl)sulfamoyl)-4′-methoxy-N,N-dimethylbiphenyl-3-carboxamide]	92%
COc1ccc(-c2cccc(C(=O)N(C)C)c2)cc1S(=O)(=O)Nc1cccc(O[C@H]2CCN(C(=O)c3ccccc3C)C2)c1 [Example 7, 4′-methoxy-N,N-dimethyl-3′-((3-(((3S)-1-(2-methylbenzoyl)pyrrolidin-3-yl)oxy)phenyl)sulfamoyl)biphenyl-3-carboxamide]	92%
COc1ccc(-c2cccc(C(=O)N(C)C)c2)cc1S(=O)(=O)Nc1cccc(NC2CCN(C(=O)c3cccc(C)c3)C2)c1 (stereo not shown) [Example 1, 4′-methoxy-N,N-dimethyl-3′-((3-((1-(3-methylbenzoyl)pyrrolidin-3-yl)amino)phenyl)sulfamoyl)biphenyl-3-carboxamide]	103%
COc1ccc(-c2cccc(C(=O)N(C)C)c2)cc1S(=O)(=O)Nc1cccc(O[C@H]2CCN(C(=O)C3CCCCO3)C2)c1 (stereo partly drawn) [Example 14, 4′-methoxy-N,N-dimethyl-3′-((3-(((3S)-1-(tetrahydro-2H-pyran-2-ylcarbonyl)pyrrolidin-3-yl)oxy)phenyl)sulfamoyl)biphenyl-3-carboxamide]	95%
COc1ccccc1S(=O)(=O)Nc1cccc(O[C@@H]2CN(C(=O)c3cc(C)ccc3C)C[C@H]2OC)c1Cl (relative stereo) [Example 117, trans-N-(2-chloro-3-((1-(2,5-dimethylbenzoyl)-4-methoxypyrrolidin-3-yl)oxy)phenyl)-2-methoxybenzenesulfonamide]	66%
